The results in this text go back to patent US20190031618A1, “BENZIMIDAZOLE DERIVATIVES USEFUL AS CB-1 INVERSE AGONISTS” (Janssen Pharmaceutica NV, priority 2015, published 2019).

The nature of series [1]: Mouse Fast PK/BBB: plasma and brain concentration. The class given is in vivo, Male C57bl/6j mice. The note with it: mice; for concentration at 1 h: male, C57bl/6j, mouse, brain, read-out: Brain Mean Conc. ± Std. Dev; for Brain Mean Conc. ± Std. Dev: 1 hr.
Series [2] deals with Human CB1R (Cannabinoid receptor 1) (Homo sapiens, UniProt P21554). The series is described as follows: CB-1 in vitro cAMP (HTRF) assay. Type of series: cell-based. The note with it: HEK cells, cAMP HTRF, 250 nM forskolin; mean where tested more than once; read-out: CB1 HEK_cAMP EC50. Summed up:
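Intracellular cAMP from HTRF ratio (d2-cAMP vs Eu-cryptate anti-cAMP), converted to nM via per-plate standards, in stable human CB1R HEK-293 cells.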
For orientation: TR-FRET usually uses a lanthanide donor and a delayed reading to cut background.

Series [3] in a line: Chronic DIO Mouse: plasma and brain concentrations. The class given is in vivo. Conditions: oral, DIO mice, 2 Hours Post Dose. As for the experimental part:
DIO mice received vehicle, test compound (@ 1, 3, 10, and 30 mg/kg) daily for 26 days. At the end of the experiment, the mice were euthanized and blood and tissues were collected.

Series [4] can be described thus: Five-Day Study in DIO Mice: plasma and brain compound levels. Conditions: mouse, in vivo, 30 mg/kg.
Series [5] relates to DIO mice. The series is described as follows: Five-Day Study in DIO Mice: food intake, body weight, plasma insulin, fed blood glucose. The class given is in vivo. The note with it: for Plasma Insulin: 30 mg/kg, day 5, two hours after dosing, (Std Err). From the text:
Male 14-20-week old diet-induced obese mice are ordered from Taconic. Mice were started on a 60% fat diet (D12492, Research Diets, New Brunswick, N.J.) at 6 weeks of age. Mice are single-housed.
Male Sprague Dawley rats are ordered from Charles River (225-250 gm upon arrival). They are fed standard chow diet (Purina 5001) and housed 2 per cage. Male C57bl/6j mice are ordered from Charles River at 22-25 g and housed 3 per cage. They are fed standard chow (Purina 5001). All animals are housed in a temperature-controlled room with 12-hour light/dark cycle. Animals are given food and water ad libitum, except as noted.
Test compounds are administered by oral gavage (5 ml kg^−1 or 10 ml kg^−1).

Series [6] is described as follows: in vivo. The note with it: mouse, 30 mg/kg.
Setting [7] is: 30 mg/kg daily oral, Day 1, (Std Err).
Setting [8] is: 30 mg/kg daily oral, Day 2, (Std Err).
[9] abbreviates: 30 mg/kg daily oral, Day 3, (Std Err).
The mark [10] stands for this setting: 30 mg/kg daily oral, Day 4, (Std Err).
The mark [11] stands for this setting: 30 mg/kg group, Day 0, (Std Err).

Molecules are shown by their SMILES. Several values for one entry are separate records, joined by “and”; a condition that tells them apart may be missing. Identical values can stand only once. Like-named read-outs stand apart in the source and are kept apart here.

Human CB1R (Cannabinoid receptor 1), sequence (P21554 whole entry): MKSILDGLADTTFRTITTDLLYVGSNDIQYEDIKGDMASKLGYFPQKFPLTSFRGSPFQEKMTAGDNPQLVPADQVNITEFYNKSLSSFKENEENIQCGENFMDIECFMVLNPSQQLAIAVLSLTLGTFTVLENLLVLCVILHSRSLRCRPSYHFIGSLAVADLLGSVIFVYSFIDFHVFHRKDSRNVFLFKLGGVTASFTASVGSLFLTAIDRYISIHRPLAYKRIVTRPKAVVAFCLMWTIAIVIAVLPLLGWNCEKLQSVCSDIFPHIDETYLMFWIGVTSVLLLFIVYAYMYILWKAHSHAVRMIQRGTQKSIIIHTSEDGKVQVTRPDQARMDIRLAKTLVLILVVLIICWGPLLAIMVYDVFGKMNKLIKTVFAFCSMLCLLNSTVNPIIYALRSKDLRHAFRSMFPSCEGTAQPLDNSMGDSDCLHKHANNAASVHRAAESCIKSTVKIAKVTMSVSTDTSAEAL

The term EC50 denotes the concentration that produces a half-maximal response. Turning to `O=C(O)c1cc(F)cc(CN2CCC(n3c(C4CC4)nc4ccc(C(c5ccc(Cl)cc5)c5ccc(Cl)cc5)cc43)CC2)c1` [Example 89], in series [1] (dose 30 mg/kg oral), the concentration at 1 h amounted to 92.6 ± 20.4 ng/mL. Moreover, the EC50 in series [2] came out at 7.2 nM.
For `O=C(O)c1ccc(F)c(CN2CCC(n3c(C4CC4)nc4ccc(C(c5ccc(Cl)cc5)c5ccc(Cl)cc5)cc43)CC2)c1` [Example 92], in that order: 72.4 ± 11.1 ng/mL and 15.9 nM.
Regarding `O=C(O)c1ccc(CN2CCC(n3c(C4CC4)nc4ccc(C(c5ccc(Cl)cc5)c5ccc(Cl)cc5)cc43)CC2)nc1` [Example 124], in series [1] (dose 30 mg/kg oral), the “Brain Mean Conc. ± Std. Dev” value is “BLOQ ± NA”. The 50% effective concentration (EC50) in series [2] was determined as 34.9 nM.
`O=C(O)c1cccc(CN2CCC(n3c(C4CC4)nc4ccc(C(c5ccc(Cl)cc5)c5ccc(Cl)cc5)cc43)CC2)n1` [Example 125]: the “Brain Mean Conc. ± Std. Dev” value in series [1] (dose 30 mg/kg oral) was “BLOQ ± NA”. For the same compound, in series [2], the EC50 was found to be 17.7 nM.
For `O=C(O)c1ccc(CN2CCC(n3c(C4CC4)nc4ccc(C(c5ccc(Cl)cc5)c5ccc(Cl)cc5)cc43)CC2)o1` [Example 129], the “Brain Mean Conc. ± Std. Dev” value in series [1] (dose 30 mg/kg oral) is listed as “BLOQ ± NA”. In addition, in series [2], the concentration giving a half-maximal response (EC50) was found to be 19.8 nM.
For `O=C(O)c1cccc(CN2CCC(n3c(C4CC4)nc4ccc(C(c5ccc(Cl)cc5)c5ccc(Cl)cc5)cc43)CC2)c1` [Example 148], the concentration at 1 h in series [1] (dose 30 mg/kg oral) came out at 334 ± 108 ng/mL. The concentration at 2 h in series [3] (brain, 1 mg/kg daily, Day 25, read-out: Brain Concentration (Std Dev)) was found to be 18.2 ng/g; in series [3] (brain, 3 mg/kg daily, Day 25, read-out: Brain Concentration (Std Dev)), 29.9 ng/g; in series [3] (brain, 10 mg/kg daily, Day 25, read-out: Brain Concentration (Std Dev)) it was 42 ng/g; in series [3] (brain, 30 mg/kg daily, Day 25, read-out: Brain Concentration (Std Dev)), 73.5 ng/g; in series [3] (plasma, 1 mg/kg daily, Day 25, read-out: Plasma Concentration (Std Dev)), 288 ng/mL; in series [3] (plasma, 3 mg/kg daily, Day 25, read-out: Plasma Concentration (Std Dev)), 1350 ng/mL. Also, the concentration at 2 h in series [3] (plasma, 10 mg/kg daily, Day 25, read-out: Plasma Concentration (Std Dev)) is 3430 ng/mL; in series [3] (plasma, 30 mg/kg daily, Day 25, read-out: Plasma Concentration (Std Dev)), 15200 ng/mL. For the same compound, the EC50 in series [2] came to 9.6 nM.
Turning to `O=C(O)c1csc(S(=O)(=O)N2CCC(n3c(C4CC4)nc4ccc(C(c5ccc(Cl)cc5)c5ccc(Cl)cc5)cc43)CC2)c1` [Example 221], the “Brain Mean Conc. ± Std. Dev” value in series [1] (dose 20 mg/kg oral) is on record as “BLOQ ± NA”. The 50% effective concentration (EC50) in series [2] was 8.5 nM.
On to `O=C(O)c1ccc(S(=O)(=O)N2CCC(n3c(C4CC4)nc4ccc(C(c5ccc(Cl)cc5)c5ccc(Cl)cc5)cc43)CC2)o1` [Example 232], for which, in series [1] (dose 30 mg/kg oral), the “Brain Mean Conc. ± Std. Dev” value is “BLOQ ± NA”. The EC50 in series [2] turned out to be 17.6 nM.
Turning to `O=C(O)c1cccc(S(=O)(=O)N2CCC(n3c(C4CC4)nc4ccc(C(c5ccc(Cl)cc5)c5ccc(Cl)cc5)cc43)CC2)c1` [Example 242], the “Brain Mean Conc. ± Std. Dev” value in series [1] (dose 20 mg/kg oral) is given as “BLOQ ± NA”. In addition, the 50% effective concentration (EC50) in series [2] worked out at 18 nM.
For `O=S(=O)(c1cccc(O)c1)N1CCC(n2c(C3CC3)nc3ccc(C(c4ccc(Cl)cc4)c4ccc(Cl)cc4)cc32)CC1` [Example 259] the same measures were “BLOQ ± NA” and 3.7 nM.
For `O=C(O)c1ccc(S(=O)(=O)N2CCC(n3c(C4CC4)nc4ccc(C(c5ccc(Cl)cc5)c5ccc(Cl)cc5)cc43)CC2)cc1` [Example 276], in that order: “BLOQ ± NA” and 9.3 nM.
In the case of `CCc1nc2ccc(C(c3ccc(Cl)cc3)c3ccc(Cl)cc3)cc2n1CC1CCN(S(=O)(=O)C(F)(F)F)CC1` [Example 315], in series [1] (dose 20 mg/kg oral), the concentration at 1 h stood at 33.8 ± 5 ng/mL. Besides, the EC50 in series [2] is 5.3 nM.
For `O=S(=O)(N1CCC(Cn2c(C3CC3)nc3ccc(C(c4ccc(Cl)cc4)c4ccc(Cl)cc4)cc32)CC1)C(F)(F)F` [Example 316], in that order: 22.9 ± 2.7 ng/mL and 2.8 nM.
Take `O=S(=O)(N1CCC(n2c(C3CCC3)nc3ccc(C(c4ccc(Cl)cc4)c4ccc(Cl)cc4)cc32)CC1)C(F)(F)F` [Example 318]: in series [1] (dose 20 mg/kg oral), the concentration at 1 h is 57.8 ± 14.8 ng/mL. Moreover, in series [2], the concentration giving a half-maximal response (EC50) turned out to be 6.9 nM.
Take `COc1ccc(C(c2ccc(OC)cc2)c2ccc3nc(C4CCC4)n(C4CCN(S(=O)(=O)C(F)(F)F)CC4)c3c2)cc1` [Example 320]: in series [1] (dose 20 mg/kg oral), the concentration at 1 h was found to be 122 ± 18.1 ng/mL. Also, the 50% effective concentration (EC50) in series [2] stood at 69.3 nM.
In the case of `CCc1nc2ccc(C(c3ccc(Cl)cc3)c3ccc(Cl)cc3)cc2n1C1CCN(S(=O)(=O)C(F)(F)F)CC1` [Example 328], the concentration at 1 h in series [1] (dose 20 mg/kg oral) was determined as 39.1 ± 1.95 ng/mL. In series [4], the concentration at 2 h was 8360 ng/mL and 291 ng/g. Besides, the EC50 in series [2] came out at 8.4 nM. For the same compound, the “Mean Body Weight” value was 41.2 (0.7) Grams in series [5] (setting [7]); 39.6 (0.6) Grams in series [5] (setting [8]); 38.6 (0.6) Grams in series [5] (setting [9]); 38.2 (0.7) Grams in series [5] (setting [10]); 43.6 (0.7) Grams in series [5] (setting [11]). Besides, the “Mean Daily Food Intake” value in series [5] (setting [7]) is recorded as 0.5 (0.1) Grams; in series [5] (setting [8]) it was 0.5 (0.1) Grams; in series [5] (setting [9]), 0.7 (0.1) Grams; in series [5] (setting [10]), 1.2 (0.1) Grams. Also, the “Fed Blood Glucose” value was 154 (7) mg/dL in series [5] (setting [10]) and 183 (9) mg/dL in series [5] (setting [11]). In addition, the “Plasma Insulin” value in series [5] is given as 1.31 (0.13) ng/mL.
Take `O=S(=O)(N1CCC(n2c(C3CC3)nc3ccc(C(c4ccc(Cl)cc4)c4ccc(Cl)cc4)cc32)CC1)C(F)(F)F` [Example 335]: the concentration at 1 h in series [1] (dose 20 mg/kg oral) worked out at 53.3 ± 14 ng/mL. In addition, the 50% effective concentration (EC50) in series [2] was found to be 5.6 nM. The concentration at 2 h in series [6] was 7660 ng/mL and 208 ng/g. Further, the “Mean Body Weight” value was 42.8 (0.8) Grams in series [5] (setting [7]); 41.4 (0.7) Grams in series [5] (setting [8]); 40.3 (0.6) Grams in series [5] (setting [9]); 39.4 (0.6) Grams in series [5] (setting [10]); 45.4 (0.7) Grams in series [5] (setting [11]). Also, the “Mean Daily Food Intake” value was 0.4 (0.1) Grams in series [5] (setting [7]), 0.5 (0.1) Grams in series [5] (setting [8]), 0.5 (0.1) Grams in series [5] (setting [9]) and 1.1 (0.1) Grams in series [5] (setting [10]). Besides, the “Fed Blood Glucose” value was 160 (6) mg/dL in series [5] (setting [10]) and 187 (9) mg/dL in series [5] (setting [11]). The “Plasma Insulin” value in series [5] was 2.72 (0.61) ng/mL.
Turning to `CCc1nc2ccc(C(c3ccc(Cl)cc3)c3nccs3)cc2n1C1CCN(S(=O)(=O)C(F)(F)F)CC1` (stereo not shown) [Example 400], the concentration at 1 h in series [1] (dose 20 mg/kg oral) worked out at 362 ± 36.9 ng/mL. For the same compound, in series [2], the concentration giving a half-maximal response (EC50) came out at 6 nM.
